Experimental data as given in ChEMBL document CHEMBL1126370, “Neuropeptide Y (NPY) functional group mimetics: design, synthesis, and characterization as NPY receptor antagonists” (Bioorg Med Chem Lett, 1992).

What was measured:
[1] = species: Rattus norvegicus; assay: Inhibitory concentration was evaluated against the vasoconstriction induced by NPY in the rat femoral artery ring; type: functional
[2] = Inhibition constant to displace [3H]-NPY from rat brain membrane after treatment with 500 evaluated; type: tissue-based
[3] = Percent maximum displacement of the [3H]NPY by the compound in the rat brain membrane was evaluated; type: cell membranes
[4] = The receptor binding activity was evaluated as the displacement of specifically bound [3H]-NPY from male Sprague-Dawley rat brain membrane homogenates; type: tissue-based
[5] = The receptor binding activity as the displacement of specifically bound [3H]-NPY from male Sprague-Dawley rat brain membrane homogenates; type: tissue-based

| IC50 [1] [nM] | Ki [2] [µM] | Max displacement [3] [%] | IC50 [4] [µM] | IC50 [5] [µM] | Structure (SMILES) |
| --- | --- | --- | --- | --- | --- |
| 2860 | 35.5 | 100 | 45.4 |  | N/C(=N\CCNC(=O)C(N)Cc1ccc(OCc2c(Cl)cccc2Cl)cc1)NCCCCCCN/C(N)=N/CCNC(=O)C(N)Cc1ccc(OCc2c(Cl)cccc2Cl)cc1 (stereo not given) |
| 43.1 |  | 61 |  | 56 | COc1ccccc1CNCCCCCCNCCSSCCNCCCCCCNCc1ccccc1OC [BENEXTRAMINE] |
| 414 |  | 63 | 18.5 |  | N/C(=N\CCNC(=O)C(N)Cc1ccc(OCc2c(Cl)cccc2Cl)cc1)NCCSSCCN/C(N)=N/CCNC(=O)C(N)Cc1ccc(OCc2c(Cl)cccc2Cl)cc1 (stereo not given) |
